Data published in patent US6713445B1, “Peptides for treatment of HIV infection” (Advanced Immuni T, Inc., priority 1998, dated 2004).
pEC50: −log10 of the molar value. Where a SMILES comes first, the peptide text is derived from it.

System: GP120-Mediated Neurotoxicity
Assay: Neuronal survival assay with 1 pM gp120 (count of neuron-specific enolase positive cells)
Type: cell-based
Details: together with 1 pM gp120 (RF isolate), primary cultures of mixed rat neurons glia; for inhibition of neuronal death caused by gp120 (in words): dose-dependent; for protection against gp120 neuronal death: peptide at 10 μM
Description: Materials: A gp120 isolate RFII was obtained from Dr. P. Nara, NCI, NIH. All of the gp120's are purified, >95% homogeneous and previously tested for neurotoxicity with cultured neurons and were used at 1 pM final concentration in cultures of neurons. Peptides of the formula Ile-Lys-Glu-Tyr-Phe-Thr-Ser (SEQ. ID NO: 2), Ile-Lys-Glu-Tyr-Phe (SEQ. ID NO: 3), and Leu-Glu-Ser-Tyr-Thr (SEQ. ID NO: 1), were obtained from Peninsula Labs, CA. and synthesized by solid-phase Merrified methods and purified to greater than 95% homogeneity by two HPLC methods and structure confirmed by MASS Spectroscopy Analysis.
Neuronal cell culture: Dissociated hippocampal cultures are prepared from neonatal (day 2) rat cortex and hippocampus by known methods. Sterilely dissected brain tissue is minced and treated with 0.125% trypsin for 30 minutes then gently triturated with fire-polished Pasteur pipes and plated in six-well trays (35 mm^2) at low density (50,000 cells/35 mm^2 dish) upon confluent layers of astrocytes in medium containing D-MEM, penicillin (25 U/ml), streptomycin ([…]), D-glucose (0.6%), and 10% heat-inactivated fetal calf serum (HyClone Laboratories), supplemented with insulin, transferrin, selenium, corticosterone, and triiodothyronine. Medium is changed after 3 days. At 6 days, half the medium is exchanged for fresh medium. The astrocyte feeder layers were prepared from the cortexes of neonatal rats following dissection and trituration. Plating was 2.5×10^2 cells per well. Feeder layers were grown in Eagles's minimal essential medium (Formula No. 82-0234DJ, Gibco) with 10% fetal calf serum until confluent (7-14 days). With this medium the feeder cultures were free of neurons and consisted of flat cells that were stained by antibodies to glial fibrillary acidic protein, a standard immunocytochemical marker for astroglia. When hippocampal or cortical cells were added to the confluent feeder layer, the medium was changed to the following composition: 5% horse serum and MEM supplement with defined medium components. The hippocampal or cortical cultures were treated with 5′-fluoro-2′-deoxyuridine (15 ug/ml plus uridine, 35 ug/ml) to suppress the overgrowth of background cells and allow the establishment of neurons. The neurons in these cultures are post-mitotic. The neuronal cultures were allowed to grow for 1 week prior to the beginning of the experimental period. Before treating the cultures, a complete change of medium was given.
Neuronal survival assay: GP120's, with or without added peptides, were diluted in phosphate buffered saline and added to the cultures, which were treated only once for a four day period. At termination, cultures were fixed with glutaraldehyde as previously described. At the end of the test period, neuronal survival was assessed by immunohistochemical detection of neuron-specific enolase positive cells (neurons). Cultures were counted in a blinded fashion without knowledge of sample treatment in 40 fields at pre-determined coordinate locations. The total area counted is 50 mm^2. Each value reported is the mean±the standard error of 3-4 determinations. Control (saline treated) wells from these cultures have 395±20 neurons. Statistical comparisons between experimental and control culture neuronal cell counts are via analysis of variance with the Student-Newman-Kuels multiple comparison of means test.
The dotted line in FIG. 1 represents the mean number of neurons in control cultures.

Molecule	inhibition of neuronal death caused by gp120 (in words)	protection against gp120 neuronal death	pEC50 (read-out: EC50 for preventing neuronal loss caused by gp120, four day period)
CC[C@H](C)[C@H](N)C(=O)N[C@@H](CCCCN)C(=O)N[C@@H](CCC(=O)O)C(=O)N[C@@H](Cc1ccc(O)cc1)C(=O)N[C@@H](Cc1ccccc1)C(=O)N[C@H](C(=O)N[C@@H](CO)C(=O)O)[C@@H](C)O [IKEYFTS, Ile-Lys-Glu-Tyr-Phe-Thr-Ser] (H-IKEYFTS-OH; N-terminus and C-terminus assumed)	preventing neuronal loss	fully protective	7.00
Ile-Lys-Glu-Tyr-Phe (IKEYF; mammalian) [shorter pentapeptide used to show specificity]	inactive		
Leu-Glu-Ser-Tyr-Thr (LESYT; mammalian)	preventing neuronal loss	partially protective	
